In patent US11247970B2, “Selective inhibition of gluconeogenic activity” (Dana-Farber Cancer Institute, Inc., priority 2017, dated 2022):

What was measured:
[1] = test system: DIO mice and Lep^ob/ob mice; assay: Glucose tolerance test (GTT); format: in vivo
Method: (§1) All mice were purchased from Jackson laboratories and housed under a 12 h light/12 h dark cycle at 22° C. Before handling, mice were allowed to acclimate for at least 1 week in our animal facility. For in vivo studies with DIO mice, males 6-8 weeks old were fed HFD for the indicated time. For drug administration, SR-18292 was re-suspended in a 10% DMSO/10% Tween80/80% PBS solution at a final concentration of 6-12 mg/ml. Metformin was re-suspended in the same solution at a 20 mg/ml concentration. SR-18292 was injected via I.P. for 3 days between 4-5 pm and food was removed on day 3 at 5 pm. […] Metformin was administered via oral gavage. […] Insulin tolerance test was performed following the same dosing protocol, but mice were fasted for 4 hours after the forth injection before performing the test. Insulin was injected via I.P. (0.5 U/Kg) and blood glucose was measured every 20 minutes. Glycemia was measured by tail bleed using a glucometer (OneTouch). For all experiments, age- and body weight-matched animals were used. For protein, RNA extracts and biochemistry studies, livers were removed following each experiment and snap frozen in liquid nitrogen. For information on number of animals in each experiment please refer to FIGS. 4, 5 and S5 legends. All studies were performed according to protocols approved by Beth Israel Deaconess Medical Center's Animal Care and Use Committee.

[2] = test system: CREB, TORC2, Akt phosphorylation; assay: Western blot of glucagon and insulin signaling in hepatocytes; format: cell-based, mouse
Method: For measurement of acetylation, gene expression and glucose production SR-18292 ([…]) was added to cells overnight and fresh compound was added the following day for additional 3 h before collecting the cells (for total of ˜18 h treatment). Where insulin and glucagon stimulation were performed, the medium was changed to starvation medium (DMEM, 0.2% BSA, 2 mM sodium pyruvate, and 1% penicillin/streptomycin) with fresh compound for the last 3 h and cells were stimulated with either 100 nM insulin or 200 nM glucagon for an extra 1.5 h. For glucose measurements following PGC-1α over expression cells were incubated for the last 3 h in glucose-free medium (phenol-red/glucose free DMEM, 0.2% BSA, 2 mM sodium pyruvate and 20 mM sodium lactate or 10 mM glycerol in case glycerol was used as substrate). For glucose measurements following glucagon stimulation cells were incubated for the last 4 h in the same glucose-free medium that also contained glucagon (200 nM). The glucose level in the medium was measured using a glucose assay kit from Eton Bioscience Inc. by adding […] of assay buffer to […] of medium followed by 15 min incubation at 37° C. Absorbance was measured at 490 nm.

[3] = test system: HFD fed mice; assay: Chronic 14 day treatment of HFD mice; format: in vivo
Method: FIG. 57 is a plot monitoring body weight over a period of days. Mice fed HFD for 6 weeks were injected daily with SR-18292 for a total of 14 days and body weight was monitored during the treatment.
FIG. 58 is a series of bar graphs monitoring blood glucose. Mice were fasted at day 3 and 13 and fasting blood glucose was measured at day 4 and 14. Fed blood glucose was also measured at day 10. n=10, *P<0.05.
In addition, liver toxicity, as measured by serum levels of alanine transaminase (ALT), aspartate aminotransferase (AST), lactate dehydrogenase (LDH) and bilirubin, was not observed in mice treated with SR-18292 (Table 6). […] To assess the contribution of PGC-1α in mediating the in vivo effects of SR-18292, hepatic PGC-1α in Lep^ob/ob mice was depleted using shRNA and observed a significant reduction in basal blood glucose concentrations compared to control. […] To fully assess the effects of SR-18292 on whole body glucose homeostasis and insulin resistance, a glucose tolerance test (GTT) and insulin tolerance test (ITT) were performed following the same protocol used to determine fasting blood glucose. […] As expected, insulin levels after GTT were lower in the treated group (FIG. 51). […] To test if SR-18292 chronic treatment will cause similar anti-diabetic effects, mice were treated for a period of 14 days.

[4] = Food intake and body weight of treated mice; format: in vivo
Method: as §1

[5] = test system: HFD fed mice; assay: Pyruvate tolerance test (PTT); format: in vivo; details: HFD 17 weeks
Method: as §1

In the case of `Cc1ccc(CN(CC(O)COc2cccc3[nH]ccc23)C(C)(C)C)cc1` (stereo not shown) [SR-18292, 1-((1H-indol-4-yl)oxy)-3-(tert-butyl(4-methylbenzyl)amino)propan-2-ol], the glucose tolerance ([1]; DIO mice) is reported as “significantly enhanced glucose tolerance”, the glucose tolerance ([1]; Lep^ob/ob mice) is reported as “significantly enhanced glucose tolerance” and the “insulin levels after GTT” value ([1]; mouse, in vivo) is reported as “lower”. For the same compound, the “glucagon-induced phosphorylation of CREB and dephosphorylation of CRTC2” value ([2]; glucagon 200 nM) was “without disrupting”, the “cell autonomous enhancement of insulin signaling (Akt S473)” value ([2]; insulin 100 nM) was “not observed” and the “ability to reduce blood glucose” value ([3]; 14 days daily treatment) was “sustained”. The body weight ([3]; 14 days daily treatment) was “without resulting in changes in body weight”, the “toxicity by serum ALT and AST, H&E staining of liver, proinflammatory genes” value ([3]; 14 days treatment) was “did not cause any signs of toxicity” and the “H&E staining of liver slices assessed by pathologist” value ([3]; after 14 days, n=10) was “no sign of toxicity was observed”. The “liver triglycerides and cholesterol levels” value ([3]; after 14 days, n=10) was “not altered”, the “serum ALT and AST levels” value ([3]; after 14 days, n=10) was “not altered” and the “serum lactate, β-hydroxybutyrate and cholesterol levels” value ([3]; after 14 days, n=10) was “not altered”. For the same compound, the food intake ([4]; first 48 hours of treatment) was “neither food intake nor body weight were changed”, the body weight ([4]; mouse, in vivo) was “neither food intake nor body weight were changed” and the “defects in glucose production relative to metformin” value [5] was “comparable to that mediated by metformin treatment”. The “glucose levels after pyruvate injection” value [5] was “significantly reduced”.
